Patent US20180177805A1, “Intravitreal Lysine Acetylsalicylate As Treatment For Diabetic Retinopathy” (Fundación Para El Fomento De La Investigación Sani taria Y …, priority 2015, published 2018)

Experiments:
CD18 leucocyte marker = assay: CD18 leucocyte count by immunohistochemistry in retina sections, streptozotocin diabetic retinopathy model, after intravitreal injection; type: in vivo, Wistar rat; conditions: for CD18 count: treated (CASE) diabetic rats
From the text: 1. CD18 leucocyte marker: the leucocyte is the main effector cell of the inflammatory response of the tissues, something which also occurs in the retina. CD18 is a surface molecule which is expressed in the membranes of the leucocytes activated in tissues where there is inflammation, as is the case with the diabetic retina. Determine its absolute and relative number helps to know whether the injected solution is capable of reducing the presence of leucocytes activated in determined layers of the retina as part of their anti-inflammatory action.
(§1) Pursuant to approval of the Bioethics Committee for Research of the University of Miguel Hernandez de Elche and based on the international standards for the use of animal experimentation, […] confined male Wistar rat specimens weighing 200 grams were induced to suffer diabetes by means of injecting intraperitoneal streptozotocin (75 mg/kg) in a single dose. The animals were monitored during the whole study continuously in terms of weight, blood sugar, loss of hair and formation of cataracts. All the animals were exposed to the same parameters of light, darkness and availability of water and food.
(§2) For the intravitreal injection, the animals were anesthetized with a mixture in a proportion of 1:1 of xylazine hydrochloride (4 mg/kg) and ketamine hydrochloride (10 mg/kg). Under mydriasis with 0.5% tropicamide, the intravitreal injection of the lysine acetylsalicylate solution was carried out under a surgical microscope with a micro injection syringe (Hamilton Co., Reno, Nev.) and a 32 gauge needle at 1 millimeter from the temporal limbus. Only half the diabetic animals were treated with the intravitreal solution, the rest of the animals were left to develop diabetic retinopathy naturally. The process of intravitreal injection was repeated in the same way, technique and dose in the same animals 4 weeks after the initial treatment. Summary of the organization of the experimental test: • Initially, the animals were evaluated prior to including them in the experimental test to discard those with defects or basic ocular changes. • The inducement of diabetes was carried out in all the animals by means of injecting intraperitoneal streptozotocin. • The blood sugar indices were compared at 24 and 48 hours of the injection to assess whether the inducement had been successful. • Once diabetes was confirmed, the animals were divided into two groups formed by 8 rats each. • Following the diabetic retinopathy model in rats, diabetes was left to develop naturally in both groups over the first 12 weeks.
(§3) Laminar sections of the retina of all the animals were carried out, being exposed to the action of 4% formaldehyde preservatives. For the marking of the endothelial cells, an anti-ICAM1 monoclonal antibody was used, we also used anti-CD18 monoclonal antibodies for the staining of the leucocytes. After fixing the different sections of stained tissue, the positively stained molecules and the amount of blood vessels present were counted under an optical microscope (Leica® microsystem) with 10× magnification.
(§4) For the purposes of assessing significant differences between the different regions of the retina, in all the tissues, the cell and vessel counts corresponding to the central retina (between optical nerve and macular area) and those corresponding to the peripheral retina (outside of the vascular arches) were carried out separately. These counts were specifically carried out on two layers of the retina: the external plexiform layer and the ganglion cell layer.
The U Mann-Whitney contrast test was used for independent samples. To contrast the correlation between the variables, the Spearman test was used.

[1] = tested on: ICAM-1 endothelial marker; assay: ICAM-1 endothelial cell count by immunohistochemistry in retina sections, streptozotocin diabetic retinopathy model, after intravitreal injection; type: in vivo, Wistar rat; conditions: treated (CASE) diabetic rats
From the text: 2. […] ICAM-1 is a transmembrane protein present in the endothelial cells and practically specific to them. Its immunohistochemical staining allows the endothelial cells present in the different layers of examined tissues to be quantitatively indicated and assessed and it gives us information concerning the vascularization of the examined tissues and the integrity of the vascular wall.
as §1, §2
Laminar sections of the retina of all the animals were carried out, being exposed to the action of 4% formaldehyde preservatives. […] After fixing the different sections of stained tissue, the positively stained molecules and the amount of blood vessels present were counted under an optical microscope (Leica® microsystem) with 10× magnification. […]

[2] = tested on: blood vessels of the retina; assay: Vascular density (blood vessel count per tissue section) in retina, streptozotocin diabetic retinopathy model, after intravitreal injection; type: in vivo, Wistar rat; conditions: for VESSELS count: treated (CASE) diabetic rats
From the text: 3. Vascular density: the chronic inflammation caused in diabetic retinopathy involves obliteration and death of the blood vessels. […] This scenario is a final stage of the phenomenon known as diabetic microangiopathy. Thus, determining the number of vessels present in each section of tissue can give us information concerning whether or not the medicament is capable of positively or negatively influencing the capillary density of the retina (vessels/portion of tissue).
as §1, §2, §3
as §4, with “layer. […]” for “layer.”

retina = tested on: retina; design: species or system Wistar rat; conditions: rat, in vivo
Experimental: as §2, with “The process of intravitreal injection was repeated in the same way, technique and dose in the same animals 4 weeks after the initial treatment.” left out, “weeks. […]” for “weeks.”

[3] = central retina, external plexiform layer, 25 micrograms intravitreal at weeks 12 and 16, sacrifice week 20
[4] = peripheral retina, external plexiform layer
[5] = peripheral retina, ganglion layer
[6] = treated animals, central retina (text says plexiform layer), range 3-6

CC(=O)Oc1ccccc1C(=O)O [lysine acetylsalicylate]
CD18 count (CD18 leucocyte marker; [3]): 16.5 (14.0-18.0) | CD18 count (CD18 leucocyte marker; central retina, ganglion layer): 5.0 (3.0-6.0) | CD18 count (CD18 leucocyte marker; [4]): 8.0 (6.0-9.0) | CD18 count (CD18 leucocyte marker; [5]): 3.0 (2.0-4.0) | CD18 count, average (CD18 leucocyte marker; [6]): 5 | leucocytes per field relative to number expected from vessel count (regression model) (CD18 leucocyte marker; treated group, central retina, expected at least 10 leucocytes per field): half the leucocytes which would be expected | ICAM1 count [1, 3]: 15.0 (14.0-17.5) | ICAM1 count ([1]; central retina, ganglion layer): 4.0 (3.0-5.0) | ICAM1 count [1, 4]: 9.0 (7.0-11.0) | ICAM1 count [1, 5]: 2.0 (1.3-3.0) | VESSELS count [2, 3]: 9.0 (7.0-11.0) | VESSELS count ([2]; central retina, ganglion layer): 5.0 (2.8-6.0) | VESSELS count [2, 4]: 6.0 (5.0-7.0) | VESSELS count [2, 5]: 3.0 (1.8-4.0) | vessels per tissue section, average [2, 6]: 5 | signs of medicament toxicity (de-structuring of retinal layers, absence of photoreceptor cells, histological alterations of optical nerve) (retina): No tissues were found to have signs that showed alterations suggesting toxicity
